In PubChem BioAssay AID179 (DTP/NCI, 2004):
The source made the active and inactive calls.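 The calls were made as follows: active = compounds giving half or more protection of infected cells from virus-caused growth loss, again on retest; inactive = the rest.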

Tested on: CEM cells HIV-1 protection, formazan growth assay
Assay: NCI AIDS Antiviral Assay
Conditions: for IC50: measured here: growth of uninfected CEM cells
Procedure, shortened: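 Human CEM cells, uninfected and HIV-1-infected, exposed to five drug concentrations; growth measured by soluble formazan assay and scored as percent protection from infection, with protecting compounds retested.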

For `Cc1cnc2c(c1C)C(=O)c1ccccc1C2=O`, the outcome was “inactive”.

Work on `CCC(C)OC(=O)/C(Br)=C1/OC(=O)c2ccccc2-c2ccccc21` (stereo unspecified) yielded an EC50 greater than 200 µM and an IC50 of 47.9 µM.

Work on `CC(=O)O[C@]1(C)C(=O)OC2C1C(OC(=O)C=C(C)C)C[C@](C)(OC(C)=O)[C@H]1[C@H](O)C=C(C)[C@@H]21` (stereo partly specified) yielded an EC50 greater than 269 µM and an IC50 of 10 µM.

In the case of `CCCC(CCC(=O)O)(CCC(=O)O)[N+](=O)[O-]`, the outcome is reported as “inactive”.

With `N#Cc1c(-c2ccc(NCc3nc4ccccc4[nH]3)cc2)cc(-c2ccco2)[nH]c1=O` the EC50 was greater than 200 µM and the IC50 was 27.5 µM.

Molecule `CCOC(=O)c1ccc(CS(=O)(=O)c2ccc(Cl)cc2)cc1` has an EC50 greater than 55 µM and an IC50 greater than 55 µM.

`N=C(N)SCCc1cn2ccccc2n1` showed an EC50 greater than 851 µM and an IC50 of 42.7 µM.

Work on `CC12CC3CC(C1)CC(N=[N+]=[N-])(C3)C2` yielded an EC50 greater than 70.8 µM and an IC50 greater than 70.8 µM.

Work on `CC(C)n1c(=O)c2nn3c(=O)n(C(C)C)c(=O)c3nn2c1=O` yielded an EC50 greater than 200 µM and an IC50 greater than 200 µM.

Molecule `O=C(OCc1ccccc1)/C(c1ccccc1)=[N+]1/C(=S)Nc2ccc([N+](=O)[O-])cc21` has an EC50 greater than 200 µM and an IC50 of 105 µM.

`CCOC(=O)/C(=C\c1ccccc1Cl)P(=O)(OCC)OCC` gave an EC50 greater than 20.9 µM and an IC50 of 11.7 µM.

For `COC(=O)C(CC(=O)Nc1ccc(C)cc1)C(=O)C(=O)Nc1c(C(C)C)cccc1C(C)C` (stereo unspecified), the EC50 was greater than 79.4 µM and the IC50 was greater than 79.4 µM.

For `C/C(C=C(C#N)C#N)=C\c1ccc(N(C)C)cc1`, the EC50 was greater than 21.9 µM and the IC50 was greater than 21.9 µM.

Work on `CC(C)(C)N1C(=O)c2ccccc2C1(O)C(F)(F)F` (stereo unspecified) yielded an EC50 greater than 200 µM and an IC50 of 135 µM.

`CCOC(=O)C(=CNc1cccc(NC=C(C(=O)OCC)C(=O)OCC)c1)C(=O)OCC` gave an EC50 greater than 200 µM and an IC50 of 19.1 µM.

Work on `CC(=O)OCCn1cnc2c(NCC=C(C)C)ncnc21` yielded an EC50 greater than 200 µM and an IC50 greater than 200 µM.

In the case of `Cc1ccc(SCC(CF)OC(C)n2cnc3c(=O)[nH]c(N)nc32)cc1` (stereo unspecified), the EC50 is reported as greater than 200 µM and the IC50 is reported as 74.1 µM.

`CC1(C)OC(=O)C(=Cc2ccccc2Br)C(=O)O1` showed an EC50 greater than 417 µM and an IC50 of 1.29 µM.

For `CN(C)CC1CCCCCC(CN(C)C)C1=O` (stereo unspecified), the EC50 was greater than 20 µM and the IC50 was 1.07 µM.

`O=C(CC(=O)c1ccccc1)CC(=O)c1ccccc1` was tested, and the EC50 was greater than 19.5 µM and the IC50 was greater than 19.5 µM.

With `O=C1c2cccc3cc([N+](=O)[O-])cc(c23)C(=O)N1C(Cc1ccccc1)c1ccccc1` (stereo unspecified) the EC50 was greater than 200 µM and the IC50 was 105 µM.

Molecule `COc1nc2sc3c(c2c(=O)n1CCCSSCCCn1c(OC)nc2sc4c(c2c1=O)CCCC4)CCCC3` has an EC50 greater than 100 µM and an IC50 greater than 100 µM.

Work on `O=C(O)CCN1CCN(CCC(=O)O)CCN(CCC(=O)O)CC1` yielded an EC50 greater than 200 µM and an IC50 of 18.2 µM.

In the case of `CCOCNC(=O)N(COCC)COCC`, the EC50 is reported as greater than 398 µM and the IC50 is reported as greater than 398 µM.

`COc1c(O)c2c(=O)cc(OC)c3c4c(OC)cc(=O)c5c(O)c(OC)c6c(c(c1C(C(C)=O)C6C(C)O)c23)c54` (stereo unspecified) was tested, and the EC50 was greater than 20 µM and the IC50 was 0.316 µM.

`O=c1cc(CO)oc(C(O)c2ccccc2)c1O` (stereo unspecified) was tested, and the EC50 was greater than 200 µM and the IC50 was greater than 200 µM.

In the case of `COc1c(Cl)cc(C(=CCC(=O)O)c2cc(Cl)c(OC)c(C(=O)O)c2)cc1C(=O)O`, the EC50 is reported as 30.2 µM and the IC50 is reported as greater than 200 µM.

`Cc1ccc(-c2nc(-c3cnccn3)n(C3OC(CO)C(O)C(O)C3O)n2)cc1` (stereo unspecified) was tested, and the EC50 was greater than 200 µM and the IC50 was greater than 200 µM.

`CN(C)CCCNC(CC#N)CCC#N` (stereo unspecified) showed an EC50 greater than 200 µM and an IC50 greater than 200 µM.

With `c1nc2c([nH]1)CCNC2c1ccc2c(c1)OCO2` (stereo unspecified) the outcome was “inactive”.

`COc1ccc2c(c1)c1c(n2CCN(C)C)-c2ccccc2CC1` was tested, and the EC50 was greater than 200 µM and the IC50 was 14.8 µM.

In the case of `COC(=O)c1ncc2c(=O)[nH]c3ccccc3c2c1C(=O)OC`, the EC50 is reported as greater than 16.6 µM and the IC50 is reported as greater than 16.6 µM.

Molecule `NC(=O)c1ccc2c(c1)S(=O)(=O)c1ccccc1C2=O` has an EC50 greater than 200 µM and an IC50 greater than 200 µM.

Molecule `COC(=O)/C=C\COCC1C2CCC(=O)C21` (stereo unspecified) has an EC50 greater than 50.1 µM and an IC50 of 28.2 µM.

With `CC(O)C1CC1(CO)CNc1cc(Cl)nc(N)n1` (stereo unspecified) the EC50 was greater than 200 µM and the IC50 was greater than 200 µM.

For `Cc1ccc2nc(NC(=S)SSC(=S)Nc3nc4ccc(C)cc4s3)sc2c1`, the EC50 was greater than 200 µM and the IC50 was 0.537 µM.

For `O=C(O)[C@@H]1CSC(c2ccc(C(F)(F)F)cc2)N1` (stereo partly specified), the EC50 was greater than 200 µM and the IC50 was greater than 200 µM.

`O=C1CC2(CCc3ccccc32)C(=O)N1CN1CCN(c2ccccn2)CC1` (stereo unspecified) showed an EC50 greater than 87.1 µM and an IC50 of 70.8 µM.

`Cc1cc(Cc2cc(C)cc(S(=O)(=O)O)c2O)c(O)c(S(=O)(=O)O)c1` was tested, and the EC50 was 209 µM and the IC50 was 646 µM.

With `CN1Nc2ccccc2CC1=O` the EC50 was greater than 1550 µM and the IC50 was 55 µM.

Work on `COc1ccc2c(c1)CCN=C2Cc1ccccc1CCCl` yielded an EC50 greater than 200 µM and an IC50 of 26.3 µM.

In the case of `OC12c3ccccc3C1CCCCCC21OCCCO1` (stereo unspecified), the EC50 is reported as greater than 200 µM and the IC50 is reported as greater than 200 µM.
